Assay results as given in PubChem BioAssay AID212 (DTP/NCI, 2004).
“And” between values parts separate entries of the source, which are not always exact repeats. Equal values may be shown once. Results filed as inconclusive are left out.

Test system: BDF1 mice, colon carcinoma 38 sc, T/C %
Assay: NCI In Vivo Anticancer Drug Screen. Data for tumor model Colon Carcinoma 38 (subcutaneous) in B6D2F1 (BDF1) mice
Summary of the method: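 Mice with transplanted tumors are treated with compound or vehicle. Survival or tumor size is then measured in both groups. The ratio of treated to control gives the reported figure.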

[1] = endpoint: median tumor weight (est.), dose: 25.0 mg/kg/injection, schedule: Q07DX002 (ip), vehicle: saline with Tween-80, higher = larger tumour
[2] = endpoint: median tumor weight (est.), dose: 50.0 mg/kg/injection, schedule: Q07DX002 (ip), vehicle: saline with Tween-80, higher = larger tumour
[3] = endpoint: median tumor weight (est.), dose: 100.0 mg/kg/injection, schedule: Q07DX002 (ip), vehicle: saline with Tween-80, higher = larger tumour
[4] = endpoint: median tumor weight (est.), dose: 200.0 mg/kg/injection, schedule: Q07DX002 (ip), vehicle: saline with Tween-80, higher = larger tumour

CCC(C(=O)O)C(=O)O.[NH2-].[NH2-].[Pt+2]
T/C (endpoint: median tumor weight (est.), dose: 50.0 mg/kg/injection, schedule: Q07DX002 (ip), vehicle: saline, higher = larger tumour): 46 % of control
T/C (endpoint: median tumor weight (est.), dose: 100.0 mg/kg/injection, schedule: Q07DX002 (ip), vehicle: saline, higher = larger tumour): 19 % of control
T/C (endpoint: median tumor weight (est.), dose: 200.0 mg/kg/injection, schedule: Q07DX002 (ip), vehicle: saline, higher = larger tumour): 2 % of control

CC1=C/C(O)CC(=O)Cc2nc(co2)C(=O)N2CCC=C2C(=O)OC(C(C)C)C(C)/C=C\C(=O)NC/C=C\1 (stereo not drawn)
T/C (endpoint: median tumor weight (est.), dose: 50.0 mg/kg/injection, schedule: Q07DX002 (ip), vehicle: Klucel (hydroxypropylcellulose) (HPC), higher = larger tumour): 109 % of control
T/C (endpoint: median tumor weight (est.), dose: 400.0 mg/kg/injection, schedule: Q07DX002 (ip), vehicle: Klucel (hydroxypropylcellulose) (HPC), higher = larger tumour): 102 % of control
T/C (endpoint: median tumor weight (est.), dose: 800.0 mg/kg/injection, schedule: Q07DX002 (ip), vehicle: Klucel (hydroxypropylcellulose) (HPC), higher = larger tumour): 117 % of control

Nc1cc2c3c(cccc3c1)C(=O)N(CCN1CCCC1)C2=O
T/C (endpoint: median tumor weight (est.), dose: 15.0 mg/kg/injection, schedule: Q07DX002 (ip), vehicle: saline with Tween-80, higher = larger tumour): 75 % of control
T/C [1]: 117 % of control
T/C (endpoint: median tumor weight (est.), dose: 30.0 mg/kg/injection, schedule: Q07DX002 (ip), vehicle: saline with Tween-80, higher = larger tumour): 83 % of control
T/C [2]: 152 % of control
T/C (endpoint: median tumor weight (est.), dose: 60.0 mg/kg/injection, schedule: Q07DX002 (ip), vehicle: saline with Tween-80, higher = larger tumour): 73 % of control
T/C [3]: 90 % of control
T/C (endpoint: median tumor weight (est.), dose: 120.0 mg/kg/injection, schedule: Q07DX002 (ip), vehicle: saline with Tween-80, higher = larger tumour): 62 % of control
T/C [4]: 28 % of control

Nc1ccc2c(c1)CN1C(=O)c3ccccc3C1=N2
T/C (endpoint: median survival time, dose: 60.0 mg/kg/injection, schedule: Q07DX002 (oral), vehicle: saline with Tween-80, higher = longer survival): 96 % of control
T/C (endpoint: median survival time, dose: 100.0 mg/kg/injection, schedule: Q01DX008 (oral), vehicle: saline with Tween-80, higher = longer survival): 103 % of control
T/C (endpoint: median survival time, dose: 200.0 mg/kg/injection, schedule: Q01DX008 (oral), vehicle: saline with Tween-80, higher = longer survival): 96 % of control
T/C (endpoint: median survival time, dose: 800.0 mg/kg/injection, schedule: Q07DX002 (oral), vehicle: saline with Tween-80, higher = longer survival): 90 % of control
T/C (endpoint: median survival time, dose: 1000.0 mg/kg/injection, schedule: Q07DX002 (oral), vehicle: saline with Tween-80, higher = longer survival): 97 % of control
T/C (endpoint: median tumor weight (est.), dose: 50.0 mg/kg/injection, schedule: Q07DX002 (ip), vehicle: DMSO, higher = larger tumour): 50 % of control
T/C (endpoint: median tumor weight (est.), dose: 100.0 mg/kg/injection, schedule: Q07DX002 (ip), vehicle: other, higher = larger tumour): 13 % of control
T/C (endpoint: median tumor weight (est.), dose: 103.7 mg/kg/injection, schedule: Q01DX005 (oral), vehicle: saline with Tween-80, higher = larger tumour): 52 % of control
T/C (endpoint: median tumor weight (est.), dose: 129.6 mg/kg/injection, schedule: Q06HX004 (oral), vehicle: saline with Tween-80, higher = larger tumour): 26 % of control
T/C (endpoint: median tumor weight (est.), dose: 172.8 mg/kg/injection, schedule: Q01DX005 (oral), vehicle: saline with Tween-80, higher = larger tumour): 52 % of control
T/C (endpoint: median tumor weight (est.), dose: 200.0 mg/kg/injection, schedule: Q07DX002 (oral), vehicle: saline with Tween-80, higher = larger tumour): 27 % of control
T/C (endpoint: median tumor weight (est.), dose: 216.0 mg/kg/injection, schedule: Q06HX004 (oral), vehicle: saline with Tween-80, higher = larger tumour): 16 % of control
T/C (endpoint: median tumor weight (est.), dose: 288.0 mg/kg/injection, schedule: Q01DX005 (oral), vehicle: saline with Tween-80, higher = larger tumour): 7 % of control
T/C (endpoint: median tumor weight change, dose: 70.4 mg/kg/injection, schedule: Q01DX009 (oral), vehicle: saline with Tween-80, higher = larger tumour): 13 % of control
T/C (endpoint: median tumor weight change, dose: 105.6 mg/kg/injection, schedule: Q01DX005 (oral), vehicle: saline with Tween-80, higher = larger tumour): 68 % of control
T/C (endpoint: median tumor weight change, dose: 105.6 mg/kg/injection, schedule: Q01DX009 (oral), vehicle: saline with Tween-80, higher = larger tumour): 42 % of control
T/C (endpoint: median tumor weight change, dose: 158.3 mg/kg/injection, schedule: Q01DX005 (oral), vehicle: saline with Tween-80, higher = larger tumour): -5 % of control
T/C (endpoint: median tumor weight change, dose: 158.3 mg/kg/injection, schedule: Q01DX009 (oral), vehicle: saline with Tween-80, higher = larger tumour): -40 % of control
T/C (endpoint: median tumor weight change, dose: 158.3 mg/kg/injection, schedule: Q06HX002 (oral), vehicle: saline with Tween-80, higher = larger tumour): 71 % of control
T/C (endpoint: median tumor weight change, dose: 158.3 mg/kg/injection, schedule: Q06HX004 (oral), vehicle: saline with Tween-80, higher = larger tumour): 60 % of control
T/C (endpoint: median tumor weight change, dose: 158.3 mg/kg/injection, schedule: Q07DX003 (oral), vehicle: saline with Tween-80, higher = larger tumour): 24 % of control
T/C (endpoint: median tumor weight change, dose: 237.0 mg/kg/injection, schedule: Q08DX002 (oral), vehicle: saline with Tween-80, higher = larger tumour): 33 % of control
T/C (endpoint: median tumor weight change, dose: 237.4 mg/kg/injection, schedule: Q01DX005 (oral), vehicle: saline with Tween-80, higher = larger tumour): -60 % of control
T/C (endpoint: median tumor weight change, dose: 237.4 mg/kg/injection, schedule: Q06HX002 (oral), vehicle: saline with Tween-80, higher = larger tumour): 37 % of control
T/C (endpoint: median tumor weight change, dose: 237.4 mg/kg/injection, schedule: Q06HX004 (oral), vehicle: saline with Tween-80, higher = larger tumour): 36 % of control
T/C (endpoint: median tumor weight change, dose: 237.4 mg/kg/injection, schedule: Q07DX002 (oral), vehicle: saline with Tween-80, higher = larger tumour): 80 % of control
T/C (endpoint: median tumor weight change, dose: 237.4 mg/kg/injection, schedule: Q07DX003 (oral), vehicle: saline with Tween-80, higher = larger tumour): 69 % of control
T/C (endpoint: median tumor weight change, dose: 355.9 mg/kg/injection, schedule: Q01DX001 (oral), vehicle: saline with Tween-80, higher = larger tumour): 68 % of control
T/C (endpoint: median tumor weight change, dose: 355.9 mg/kg/injection, schedule: Q01DX005 (oral), vehicle: saline with Tween-80, higher = larger tumour): -88 % of control
T/C (endpoint: median tumor weight change, dose: 355.9 mg/kg/injection, schedule: Q06HX002 (oral), vehicle: saline with Tween-80, higher = larger tumour): 48 % of control and 66 % of control
T/C (endpoint: median tumor weight change, dose: 355.9 mg/kg/injection, schedule: Q06HX004 (oral), vehicle: saline with Tween-80, higher = larger tumour): -13 % of control
T/C (endpoint: median tumor weight change, dose: 355.9 mg/kg/injection, schedule: Q07DX002 (oral), vehicle: saline with Tween-80, higher = larger tumour): 23 % of control
T/C (endpoint: median tumor weight change, dose: 355.9 mg/kg/injection, schedule: Q07DX003 (oral), vehicle: saline with Tween-80, higher = larger tumour): 55 % of control
T/C (endpoint: median tumor weight change, dose: 355.9 mg/kg/injection, schedule: Q08DX002 (oral), vehicle: saline with Tween-80, higher = larger tumour): 33 % of control
T/C (endpoint: median tumor weight change, dose: 533.6 mg/kg/injection, schedule: Q01DX001 (oral), vehicle: saline with Tween-80, higher = larger tumour): 66 % of control
T/C (endpoint: median tumor weight change, dose: 533.6 mg/kg/injection, schedule: Q06HX002 (oral), vehicle: saline with Tween-80, higher = larger tumour): -46 % of control and -38 % of control
T/C (endpoint: median tumor weight change, dose: 533.6 mg/kg/injection, schedule: Q06HX004 (oral), vehicle: saline with Tween-80, higher = larger tumour): -50 % of control
T/C (endpoint: median tumor weight change, dose: 533.6 mg/kg/injection, schedule: Q07DX002 (oral), vehicle: saline with Tween-80, higher = larger tumour): 52 % of control
T/C (endpoint: median tumor weight change, dose: 533.6 mg/kg/injection, schedule: Q07DX003 (oral), vehicle: saline with Tween-80, higher = larger tumour): 34 % of control
T/C (endpoint: median tumor weight change, dose: 533.6 mg/kg/injection, schedule: Q08DX002 (oral), vehicle: saline with Tween-80, higher = larger tumour): 34 % of control
T/C (endpoint: median tumor weight change, dose: 800.0 mg/kg/injection, schedule: Q01DX001 (oral), vehicle: saline with Tween-80, higher = larger tumour): 47 % of control
T/C (endpoint: median tumor weight change, dose: 800.0 mg/kg/injection, schedule: Q06HX002 (oral), vehicle: saline with Tween-80, higher = larger tumour): -87 % of control and -85 % of control
T/C (endpoint: median tumor weight change, dose: 800.0 mg/kg/injection, schedule: Q06HX004 (oral), vehicle: saline with Tween-80, higher = larger tumour): -99 % of control
T/C (endpoint: median tumor weight change, dose: 800.0 mg/kg/injection, schedule: Q07DX002 (oral), vehicle: saline with Tween-80, higher = larger tumour): 1 % of control
T/C (endpoint: median tumor weight change, dose: 800.0 mg/kg/injection, schedule: Q07DX003 (oral), vehicle: saline with Tween-80, higher = larger tumour): -10 % of control
T/C (endpoint: median tumor weight change, dose: 800.0 mg/kg/injection, schedule: Q08DX002 (oral), vehicle: saline with Tween-80, higher = larger tumour): -14 % of control
T/C (endpoint: median tumor weight change, dose: 1199.4 mg/kg/injection, schedule: Q01DX001 (oral), vehicle: saline with Tween-80, higher = larger tumour): 39 % of control
T/C (endpoint: median tumor weight change, dose: 1199.4 mg/kg/injection, schedule: Q08DX002 (oral), vehicle: saline with Tween-80, higher = larger tumour): -36 % of control

O=C(O[Si](Cc1ccccc1)(Cc1ccccc1)Cc1ccccc1)N(CCCl)CCCl
T/C [1]: 77 % of control and 102 % of control
T/C [3]: 194 % of control
T/C [4]: 112 % of control

O=CC=O
T/C [2]: 72 % of control and 86 % of control
T/C [3]: 75 % of control and 77 % of control
T/C (endpoint: median tumor weight (est.), dose: 400.0 mg/kg/injection, schedule: Q07DX002 (ip), vehicle: saline with Tween-80, higher = larger tumour): 80 % of control and 95 % of control

CC12CC(C(=O)O)C3(O)CC(C)(C1)CC(C)(C2)C3 (stereo not drawn) (tested in a mixture with another compound)
T/C (endpoint: median tumor weight (est.), dose: 12.5 mg/kg/injection, schedule: Q07DX003 (ip), vehicle: Klucel (hydroxypropylcellulose) (HPC), higher = larger tumour): 70 % of control
T/C (endpoint: median tumor weight (est.), dose: 25.0 mg/kg/injection, schedule: Q07DX003 (ip), vehicle: Klucel (hydroxypropylcellulose) (HPC), higher = larger tumour): 94 % of control
T/C (endpoint: median tumor weight (est.), dose: 50.0 mg/kg/injection, schedule: Q07DX003 (ip), vehicle: Klucel (hydroxypropylcellulose) (HPC), higher = larger tumour): 93 % of control
T/C (endpoint: median tumor weight (est.), dose: 100.0 mg/kg/injection, schedule: Q07DX003 (ip), vehicle: Klucel (hydroxypropylcellulose) (HPC), higher = larger tumour): 121 % of control
T/C (endpoint: median tumor weight (est.), dose: 200.0 mg/kg/injection, schedule: Q07DX003 (ip), vehicle: Klucel (hydroxypropylcellulose) (HPC), higher = larger tumour): 84 % of control
